# Data published in US20160122386A1, “V1A RECEPTOR AGONISTS” (FERRING B.V., priority 2014, published 2016).
# Starred links: 1 amine or outer side, 2 acyl side, 3 side chain; linkers in the order of their positions; H or OH if unused. Positions of bridges follow the written chain, without caps; N, C: chain ends. Non-standard residues stand in square brackets, D forms with d. Residues, ends and D or L forms follow the SMILES beside them. Chains are numbered I, II in the order given. *: point of attachment. X3 = O=C([C@H](CCCNCCCCN[*:3])N[*:1])[*:2]; X2 = N=C(N)N[C@@H](CCCCN[*:1])C(=O)[*:2]; isoGln = NC(=O)[C@H](CCC(=O)[*:2])N[*:1]; d(εLys) = N[C@H](CCCCN[*:1])C(=O)[*:2]; εLys = N[C@@H](CCCCN[*:1])C(=O)[*:2]; X4 = N[C@H](CCC(=O)[*:2])C(=O)[*:1]; Glutaryl = O=C(CCCC(=O)[*:2])[*:1]; Aad = N[C@@H](CCCC(=O)O)C(=O)O; Orn = NCCC[C@H](N)C(=O)O; Dab = NCC[C@H](N)C(=O)O; PhAc = O=C(Cc1ccccc1)*
# Target: T1, human V1aR (Homo sapiens, UniProt P37288)
# T1 construct: expressed in transfected cells
# Experiment: Agonist activity at vasopressin V1a receptors, cell-based FLIPR calcium assay
# Details: for Emax: read-out: Efficacy Avg. (%)
# In short: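 HEK Flp-In cells stably expressing human V1aR were loaded with Calcium 4 dye plus 2.5 mM probenecid for 1 h at 37 °C, then given half-log compound concentrations (final 0.1% DMSO) on FLIPR Tetra.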
# T1 sequence (P37288 whole entry): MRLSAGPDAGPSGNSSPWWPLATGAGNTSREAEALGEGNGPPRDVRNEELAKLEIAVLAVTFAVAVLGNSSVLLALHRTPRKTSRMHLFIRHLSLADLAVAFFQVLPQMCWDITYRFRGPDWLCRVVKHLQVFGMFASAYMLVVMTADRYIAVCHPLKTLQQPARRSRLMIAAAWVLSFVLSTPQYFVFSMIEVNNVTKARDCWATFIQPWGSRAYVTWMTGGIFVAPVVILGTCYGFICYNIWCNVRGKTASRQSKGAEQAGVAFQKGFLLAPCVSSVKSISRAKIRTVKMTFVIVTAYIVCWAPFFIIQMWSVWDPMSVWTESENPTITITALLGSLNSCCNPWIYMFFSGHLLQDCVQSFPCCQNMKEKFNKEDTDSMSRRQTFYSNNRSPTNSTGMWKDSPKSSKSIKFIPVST
SMILES,EC50,Emax
CC[C@H](C)[C@@H]1NC(=O)[C@H](Cc2ccccc2)NC(=O)[C@@H](N)CSSC[C@@H](C(=O)N2CCC[C@H]2C(=O)N[C@@H](CCNC(=O)[C@@H](N)CCCCNC(=O)CC[C@H](NC(=O)[C@H](CCCNC(=N)N)NC(=O)[C@@H]2CCCN2C(=O)[C@H](CCCNC(=N)N)NC(=O)[C@H](CC(N)=O)NC(=O)[C@H](CCC(N)=O)NC(=O)[C@@H](NC(=O)[C@@H](Cc2ccc(OC)cc2)NC(=O)Cc2ccccc2)[C@@H](C)CC)C(N)=O)C(=O)NCC(N)=O)NC(=O)[C@H](CC(N)=O)NC(=O)[C@H](CCC(N)=O)NC1=O [Compound 36] (I: H-CFIQNCP[Dab]G-NH2 / II: PhAc-[dY](Me)IQNRPR[isoGln][εLys]; disulfide I:1-I:6; amide I:8-II:C),1.2 nM,46%
CC[C@H](C)[C@@H]1NC(=O)[C@H](Cc2ccccc2)NC(=O)[C@@H](N)CSSC[C@@H](C(=O)N2CCC[C@H]2C(=O)N[C@@H](CCNC(=O)[C@H](N)CCCCNC(=O)CC[C@H](NC(=O)[C@H](CCCNC(=N)N)NC(=O)[C@@H]2CCCN2C(=O)[C@H](CCN)NC(=O)[C@H](CC(N)=O)NC(=O)[C@H](CCC(N)=O)NC(=O)[C@H](Cc2ccccc2)NC(=O)[C@@H](Cc2ccc(OC)cc2)NC(=O)Cc2ccccc2)C(N)=O)C(=O)NCC(N)=O)NC(=O)[C@H](CC(N)=O)NC(=O)[C@H](CC(N)=O)NC1=O [Compound 59] (I: H-CFINNCP[Dab]G-NH2 / II: PhAc-[dY](Me)FQN[Dab]PR[isoGln][d(εLys)]; disulfide I:1-I:6; amide I:8-II:C),–,26%
CC[C@H](C)[C@@H]1NC(=O)[C@H](Cc2ccccc2)NC(=O)[C@@H](N)CSSC[C@@H](C(=O)N2CCC[C@H]2C(=O)N[C@@H](CCNC(=O)[C@@H](N)CCCCNC(=O)[C@H](CCCCN)NC(=O)CC[C@H](NC(=O)[C@H](CCCNC(=N)N)NC(=O)[C@@H]2CCCN2C(=O)[C@H](C)NC(=O)[C@H](CC(N)=O)NC(=O)[C@H](CCC(N)=O)NC(=O)[C@H](Cc2ccccc2)NC(=O)[C@@H](Cc2ccc(OC)cc2)NC(=O)Cc2ccccc2)C(N)=O)C(=O)NCC(N)=O)NC(=O)[C@H](CC(N)=O)NC(=O)[C@H](CCC(N)=O)NC1=O [Compound 41] (I: H-CFIQNCP[Dab]G-NH2 / II: PhAc-[dY](Me)FQNAPR[isoGln]K[εLys]; disulfide I:1-I:6; amide I:8-II:C),1.2 nM,37%
CC[C@H](C)[C@@H]1NC(=O)[C@H](Cc2ccccc2)NC(=O)[C@@H](N)CSSC[C@@H](C(=O)N2CCC[C@H]2C(=O)N[C@@H](CCCNCCCCCNC(=O)CC[C@H](NC(=O)[C@H](CCCNC(=N)N)NC(=O)[C@@H]2CCCN2C(=O)[C@H](CCC(N)=O)NC(=O)[C@H](CC(N)=O)NC(=O)[C@H](CCC(N)=O)NC(=O)[C@H](Cc2ccccc2)NC(=O)[C@@H](Cc2ccc(OC)cc2)NC(=O)Cc2ccccc2)C(N)=O)C(=O)NCC(N)=O)NC(=O)[C@H](CC(N)=O)NC(=O)[C@H](CCC(N)=O)NC1=O [Compound 14],2.1 nM,37%
CC[C@H](C)[C@@H]1NC(=O)[C@H](Cc2ccccc2)NC(=O)[C@@H](O)CSSC[C@@H](C(=O)N2CCC[C@H]2C(=O)N[C@@H](CCNC(=O)[C@@H](N)CCCCNC(=O)CC[C@H](NC(=O)[C@H](CCCNC(=N)N)NC(=O)[C@@H]2CCCN2C(=O)[C@H](CCCCN)NC(=O)[C@H](CC(N)=O)NC(=O)[C@H](CCC(N)=O)NC(=O)[C@H](Cc2ccccc2)NC(=O)[C@@H](Cc2ccc(OC)cc2)NC(=O)Cc2ccccc2)C(N)=O)C(=O)NCC(N)=O)NC(=O)[C@H](CC(N)=O)NC(=O)[C@H](CCC(N)=O)NC1=O [Compound 32],1 nM,56%
CC[C@H](C)[C@@H]1NC(=O)[C@H](Cc2ccccc2)NC(=O)[C@@H](N)CSSC[C@@H](C(=O)N2CCC[C@H]2C(=O)N[C@@H](CCNC(=O)[C@H](N)CCCCNC(=O)CC[C@H](NC(=O)[C@H](CCCNC(=N)N)NC(=O)[C@@H]2CCCN2C(=O)[C@H](C)NC(=O)[C@H](CC(N)=O)NC(=O)[C@H](CCC(N)=O)NC(=O)[C@H](Cc2ccccc2)NC(=O)[C@@H](Cc2ccc(OC)cc2)NC(=O)Cc2ccccc2)C(N)=O)C(=O)NCC(N)=O)NC(=O)[C@H](CC(N)=O)NC(=O)[C@H](CCCC(N)=O)NC1=O [Compound 51] (I: H-CFI[Aad](NH2)NCP[Dab]G-NH2 / II: PhAc-[dY](Me)FQNAPR[isoGln][d(εLys)]; disulfide I:1-I:6; amide I:8-II:C),1.4 nM,43%
CC[C@H](C)[C@@H]1NC(=O)[C@H](Cc2ccccc2)NC(=O)[C@@H](N)CSSC[C@@H](C(=O)N2CCC[C@H]2C(=O)N[C@@H](CCCNC(=O)[C@H](CCCCNC(=O)CC[C@H](NC(=O)[C@H](CCCNC(=N)N)NC(=O)[C@@H]2CCCN2C(=O)[C@H](CCCNC(=N)N)NC(=O)[C@H](CC(N)=O)NC(=O)[C@H](CCC(N)=O)NC(=O)[C@H](Cc2ccccc2)NC(=O)[C@@H](Cc2ccc(OC)cc2)NC(=O)Cc2ccccc2)C(N)=O)NC(=N)N)C(=O)NCC(N)=O)NC(=O)[C@H](CC(N)=O)NC(=O)[C@H](CCC(N)=O)NC1=O [Compound 26] (I: H-CFIQNCP[Orn]G-NH2 / II: PhAc-[dY](Me)FQNRPR[isoGln][X2]; disulfide I:1-I:6; amide I:8-II:C),0.93 nM,32%
CC[C@H](C)[C@@H]1NC(=O)[C@H](Cc2ccccc2)NC(=O)[C@@H](N)CSSC[C@@H](C(=O)N2CCC[C@H]2C(=O)N[C@@H](CCCNCCCCNC(=O)CCCC(=O)NCCCC[C@H](NC(=O)[C@H](CCCNC(=N)N)NC(=O)[C@@H]2CCCN2C(=O)[C@H](CCCNC(=N)N)NC(=O)[C@H](CC(N)=O)NC(=O)[C@H](CCC(N)=O)NC(=O)[C@H](Cc2ccccc2)NC(=O)[C@@H](Cc2ccc(OC)cc2)NC(=O)Cc2ccccc2)C(N)=O)C(=O)NCC(N)=O)NC(=O)[C@H](CC(N)=O)NC(=O)[C@H](CCC(N)=O)NC1=O [Compound 3] (I: H-CFIQNCP[X3]G-NH2 / II: PhAc-[dY](Me)FQNRPRK-NH2; disulfide I:1-I:6; linker I:8-II:8 via Glutaryl),2.9 nM,39%
CC[C@H](C)[C@@H]1NC(=O)[C@H](Cc2ccccc2)NC(=O)[C@@H](N)CSSC[C@@H](C(=O)N2CCC[C@H]2C(=O)N[C@@H](CCNC(=O)[C@@H](N)CCCCNC(=O)CC[C@H](NC(=O)[C@H](CCCNC(=N)N)NC(=O)[C@@H]2CCCN2C(=O)[C@H](CCCCN)NC(=O)[C@H](CC(N)=O)NC(=O)[C@H](CCC(N)=O)NC(=O)[C@H](Cc2ccccc2)NC(=O)[C@@H](Cc2ccc(OC)cc2)NC(=O)Cc2ccccc2)C(N)=O)C(=O)NCC(N)=O)NC(=O)[C@H](CC(N)=O)NC(=O)[C@H](CCC(N)=O)NC1=O [Compound 35] (I: H-CFIQNCP[Dab]G-NH2 / II: PhAc-[dY](Me)FQNKPR[isoGln][εLys]; disulfide I:1-I:6; amide I:8-II:C),1.2 nM,43%
CC[C@H](C)[C@@H]1NC(=O)[C@H](Cc2ccccc2)NC(=O)[C@@H](O)CSSC[C@@H](C(=O)N2CCC[C@H]2C(=O)N[C@@H](CCNC(=O)[C@@H](N)CCCCNC(=O)CC[C@H](NC(=O)[C@H](CCCNC(=N)N)NC(=O)[C@@H]2CCCN2C(=O)[C@H](CCCNC(=N)N)NC(=O)[C@H](CC(N)=O)NC(=O)[C@H](CCC(N)=O)NC(=O)[C@H](Cc2ccccc2)NC(=O)[C@@H](Cc2ccc(OC)cc2)NC(=O)Cc2ccccc2)C(N)=O)C(=O)NCC(N)=O)NC(=O)[C@H](CC(N)=O)NC(=O)[C@H](CCC(N)=O)NC1=O [Compound 31],0.83 nM,63%
CC[C@H](C)[C@@H]1NC(=O)[C@H](Cc2ccccc2)NC(=O)[C@@H](N)CSSC[C@@H](C(=O)N2CCC[C@H]2C(=O)N[C@@H](CCNC(=O)[C@@H](N)CCCCNC(=O)CC[C@H](NC(=O)[C@H](CCCNC(=N)N)NC(=O)[C@@H]2CCCN2C(=O)[C@H](C)NC(=O)[C@H](CC(N)=O)NC(=O)[C@H](CCC(N)=O)NC(=O)[C@H](Cc2ccccc2)NC(=O)[C@@H](Cc2ccc(OC)cc2)NC(=O)Cc2ccccc2)C(N)=O)C(=O)NCC(N)=O)NC(=O)[C@H](CC(N)=O)NC(=O)[C@H](CCCC(N)=O)NC1=O [Compound 50] (I: H-CFI[Aad](NH2)NCP[Dab]G-NH2 / II: PhAc-[dY](Me)FQNAPR[isoGln][εLys]; disulfide I:1-I:6; amide I:8-II:C),0.9 nM,40%
CC[C@H](C)[C@@H]1NC(=O)[C@H](Cc2ccccc2)NC(=O)[C@@H](N)CSSC[C@@H](C(=O)N2CCC[C@H]2C(=O)N[C@@H](CCNC(=O)[C@H](N)CCC(=O)NCCCC[C@H](NC(=O)[C@H](CCCNC(=N)N)NC(=O)[C@@H]2CCCN2C(=O)[C@H](C)NC(=O)[C@H](CC(N)=O)NC(=O)[C@H](CCC(N)=O)NC(=O)[C@H](Cc2ccccc2)NC(=O)[C@@H](Cc2ccc(OC)cc2)NC(=O)Cc2ccccc2)C(N)=O)C(=O)NCC(N)=O)NC(=O)[C@H](CC(N)=O)NC(=O)[C@H](CCCC(N)=O)NC1=O [Compound 65] (I: H-CFI[Aad](NH2)NCP[Dab]G-NH2 / II: PhAc-[dY](Me)FQNAPRK-NH2; disulfide I:1-I:6; linker I:8-II:8 via X4),4.5 nM,31%
CC[C@H](C)[C@@H]1NC(=O)[C@H](Cc2ccccc2)NC(=O)[C@@H](N)CSSC[C@@H](C(=O)N2CCC[C@H]2C(=O)N[C@@H](CCCNCCCCCNC(=O)CC[C@H](NC(=O)[C@H](CCCNC(=N)N)NC(=O)[C@@H]2CCCN2C(=O)[C@H](C)NC(=O)[C@H](CC(N)=O)NC(=O)[C@H](CCC(N)=O)NC(=O)[C@H](Cc2ccccc2)NC(=O)[C@@H](Cc2ccc(OC)cc2)NC(=O)Cc2ccccc2)C(N)=O)C(=O)NCC(N)=O)NC(=O)[C@H](CC(N)=O)NC(=O)[C@H](CCC(N)=O)NC1=O [Compound 2],0.69 nM,52%
CC[C@H](C)[C@@H]1NC(=O)[C@H](Cc2ccccc2)NC(=O)[C@@H](N)CSSC[C@@H](C(=O)N2CCC[C@H]2C(=O)N[C@@H](CCCNCCCCCCNC(=O)CCCCNC(=O)CC[C@H](NC(=O)[C@H](CCCNC(=N)N)NC(=O)[C@@H]2CCCN2C(=O)[C@H](C)NC(=O)[C@H](CC(N)=O)NC(=O)[C@H](CCC(N)=O)NC(=O)[C@H](Cc2ccccc2)NC(=O)[C@@H](Cc2ccc(OC)cc2)NC(=O)Cc2ccccc2)C(N)=O)C(=O)NCC(N)=O)NC(=O)[C@H](CC(N)=O)NC(=O)[C@H](CCC(N)=O)NC1=O [Compound 5],1.3 nM,28%
